Measurements reported in ChEMBL document CHEMBL1201862, “PubChem BioAssay data set” (2004).
Active and inactive are the calls of the source.

Key:
[1] = A cytotoxicity screen of small molecule inhibitors of the PhoP region in Salmonella typhi identified in the primary screen. [Related pubchem assays: 1850, 1864, 1985 ]; assay type: functional
[2] = target: Melanin-concentrating hormone receptor 1 (Homo sapiens, UniProt Q99705); assay: Fluorescence-based counterscreen for antagonists of the G-protein coupled receptor 7 (GPR7): cell-based high throughput dose response assay to identify antagonists of the melanin-concentrating hormone receptor 1 (MCHR1).; assay type: functional
[3] = NIH3T3 cell viability loss – ATP luminescence, mouse fibroblasts, counter-screen, dose response (AID 2010); assay type: functional, cell-based;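 also: cells exposed to compound for about 90 hours before reading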
[4] = Trypanosoma cruzi growth suppression in host cells – NIH3T3 host cells, beta-gal luminescence, confirmation (AID 2044); assay type: functional, cell-based;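 also: intracellular parasites grown in NIH/3T3 mouse fibroblasts as host cells; luminescent beta-galactosidase reporter signal from transgenic T. cruzi replicating inside host cells; inhibitors lower the luminescence signal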
Aminopeptidase N = target: T1, Aminopeptidase N (Plasmodium falciparum FcB1/Columbia, UniProt O96935); assay: malaria alanyl aminopeptidase activity blockers – biochemical, fluorogenic H-Leu-NHMec substrate, 1536-well (AID 1445); set-up: species or system Plasmodium falciparum 3D7, 3D7
T1 sequence (O96935 whole entry): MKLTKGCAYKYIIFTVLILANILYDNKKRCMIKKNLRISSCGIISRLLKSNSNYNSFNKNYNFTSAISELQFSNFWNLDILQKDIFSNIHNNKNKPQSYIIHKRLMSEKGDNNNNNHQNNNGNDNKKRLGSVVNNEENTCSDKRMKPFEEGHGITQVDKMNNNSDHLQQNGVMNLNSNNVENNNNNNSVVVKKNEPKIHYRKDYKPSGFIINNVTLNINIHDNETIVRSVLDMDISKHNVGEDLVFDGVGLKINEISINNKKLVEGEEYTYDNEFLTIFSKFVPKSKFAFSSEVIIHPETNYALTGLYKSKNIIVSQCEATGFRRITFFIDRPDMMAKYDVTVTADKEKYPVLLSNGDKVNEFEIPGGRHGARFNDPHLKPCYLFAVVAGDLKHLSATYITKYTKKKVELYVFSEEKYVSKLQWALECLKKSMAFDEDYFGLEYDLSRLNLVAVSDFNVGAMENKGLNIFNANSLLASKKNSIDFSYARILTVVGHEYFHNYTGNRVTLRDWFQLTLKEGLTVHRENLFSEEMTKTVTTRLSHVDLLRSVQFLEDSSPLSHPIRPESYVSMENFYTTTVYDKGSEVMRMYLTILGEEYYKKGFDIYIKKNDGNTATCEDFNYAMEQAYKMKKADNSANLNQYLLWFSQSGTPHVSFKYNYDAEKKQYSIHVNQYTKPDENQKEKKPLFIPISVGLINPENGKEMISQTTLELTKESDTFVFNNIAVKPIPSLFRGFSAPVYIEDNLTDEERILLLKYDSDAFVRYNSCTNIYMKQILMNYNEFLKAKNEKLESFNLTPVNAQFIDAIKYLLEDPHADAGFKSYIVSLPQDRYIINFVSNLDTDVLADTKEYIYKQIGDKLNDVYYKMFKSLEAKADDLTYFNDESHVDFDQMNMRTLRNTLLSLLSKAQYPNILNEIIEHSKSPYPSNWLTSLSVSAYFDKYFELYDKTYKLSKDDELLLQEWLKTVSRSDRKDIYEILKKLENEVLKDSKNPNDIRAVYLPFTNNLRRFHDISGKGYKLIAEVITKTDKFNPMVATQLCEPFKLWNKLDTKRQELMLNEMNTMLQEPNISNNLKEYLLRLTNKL

[5] = target: T2, Ubiquitin-conjugating enzyme E2 N (Homo sapiens, UniProt P61088); assay type: functional;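 also: Dose-response confirmation in a TR-FRET assay detecting UBC13-driven polyubiquitin chain formation, inhibition measured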
T2 sequence (P61088 whole entry): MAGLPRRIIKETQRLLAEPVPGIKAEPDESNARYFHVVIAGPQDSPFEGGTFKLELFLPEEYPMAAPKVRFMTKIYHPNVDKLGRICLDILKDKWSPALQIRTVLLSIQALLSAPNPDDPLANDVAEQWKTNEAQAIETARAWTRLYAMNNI

[6] = viability of uninfected HEp-2 cells – cell-based, HTS, cytotoxicity control for RSV inhibitor project, dose response (AID 2410); assay type: functional; details: human respiratory syncytial virus
HT-1080 = assay: HT1080 cell viability loss – fluorescence readout (AID 620); assay type: functional, cell-based; details: Homo sapiens
Troponin, cardiac muscle = Troponin, cardiac muscle (Homo sapiens, UniProt P19429+P45379+P63316); assay: Fluorescence-based biochemical high throughput dose response assay for activators of the calcium sensitivity of cardiac Regulated Thin Filaments (RTF). [Related pubchem assays (depositor defined):AID493008, AID493018, AID504382, AID504383]; assay type: protein-complex assay
[7] = target: Luciferin 4-monooxygenase (Photinus pyralis, UniProt P08659); assay: Counter Screen for Luciferase-based Assay Positives. [Related pubchem assays: 620, 618, 411 ]
Protein skinhead-1 = target: T3, Protein skinhead-1 (Caenorhabditis elegans, UniProt P34707); assay type: functional
T3 sequence (P34707 whole entry): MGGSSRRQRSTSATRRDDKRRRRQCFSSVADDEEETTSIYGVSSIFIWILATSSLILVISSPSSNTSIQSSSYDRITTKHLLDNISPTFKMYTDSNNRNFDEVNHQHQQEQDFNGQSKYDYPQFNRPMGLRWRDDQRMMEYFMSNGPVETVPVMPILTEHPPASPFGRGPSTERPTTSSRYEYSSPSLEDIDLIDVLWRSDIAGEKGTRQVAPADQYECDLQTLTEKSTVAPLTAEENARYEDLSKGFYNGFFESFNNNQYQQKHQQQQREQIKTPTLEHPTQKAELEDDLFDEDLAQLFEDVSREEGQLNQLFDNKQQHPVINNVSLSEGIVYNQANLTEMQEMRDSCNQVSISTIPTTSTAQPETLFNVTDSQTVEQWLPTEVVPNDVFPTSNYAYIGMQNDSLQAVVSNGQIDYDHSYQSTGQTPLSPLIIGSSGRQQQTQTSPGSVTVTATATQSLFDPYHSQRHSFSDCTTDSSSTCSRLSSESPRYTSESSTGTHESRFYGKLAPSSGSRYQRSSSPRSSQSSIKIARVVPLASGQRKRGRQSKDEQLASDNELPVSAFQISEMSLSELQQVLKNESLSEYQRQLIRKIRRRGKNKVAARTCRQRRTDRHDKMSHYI

[8] = target: Voltage-dependent T-type calcium channel subunit alpha-1H (Homo sapiens, UniProt O95180); assay type: functional;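 also: channel activity triggered by adding a high calcium stimulation buffer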
[9] = target: T4, Dual specificity protein phosphatase 6 (Rattus norvegicus, UniProt Q64346)
T4 sequence (Q64346 whole entry): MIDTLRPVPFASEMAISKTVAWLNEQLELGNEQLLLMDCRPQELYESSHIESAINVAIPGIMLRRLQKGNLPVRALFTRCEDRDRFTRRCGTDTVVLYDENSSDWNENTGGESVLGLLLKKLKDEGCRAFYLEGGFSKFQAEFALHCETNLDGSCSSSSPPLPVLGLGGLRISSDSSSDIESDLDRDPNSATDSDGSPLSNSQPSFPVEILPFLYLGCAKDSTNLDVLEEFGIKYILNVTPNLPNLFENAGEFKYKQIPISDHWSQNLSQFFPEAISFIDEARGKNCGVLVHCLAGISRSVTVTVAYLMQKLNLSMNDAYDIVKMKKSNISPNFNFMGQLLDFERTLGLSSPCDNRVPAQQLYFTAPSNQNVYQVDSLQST

[10] = target: T4, Dual specificity protein phosphatase 6; assay type: functional
[11] = target: Glyceraldehyde-3-phosphate dehydrogenase (Homo sapiens, UniProt P04406)
[12] = target: T5, Tyrosine-protein phosphatase non-receptor type 7 (Homo sapiens, UniProt P35236); assay type: functional
T5 sequence (P35236 whole entry): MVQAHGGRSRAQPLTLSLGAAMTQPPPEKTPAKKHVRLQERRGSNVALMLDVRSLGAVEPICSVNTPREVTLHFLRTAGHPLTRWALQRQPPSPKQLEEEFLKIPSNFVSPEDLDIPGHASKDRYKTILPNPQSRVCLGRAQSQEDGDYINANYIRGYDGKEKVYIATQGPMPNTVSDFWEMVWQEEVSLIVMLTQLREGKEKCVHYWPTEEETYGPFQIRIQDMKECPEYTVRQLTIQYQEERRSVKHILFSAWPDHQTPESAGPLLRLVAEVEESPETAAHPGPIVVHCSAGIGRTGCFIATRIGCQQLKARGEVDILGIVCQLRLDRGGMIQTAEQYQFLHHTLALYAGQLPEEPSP

[13] = target: DNA dC->dU-editing enzyme APOBEC-3G (Homo sapiens, UniProt Q9HC16); assay: Dose Response confirmation of small molecule APOBEC3G DNA Deaminase Inhibitors via a fluorescence-based single-stranded DNA deaminase assay. [Related pubchem assays (depositor defined):AID493012, AID493028]; assay type: functional
[14] = target: T6, Rac GTPase-activating protein 1 (Homo sapiens, UniProt Q9H0H5); assay: blockers of MgcRacGAP-driven Rac1 GTP hydrolysis – biochemical, ADP Hunter fluorescence, primary and confirmatory, confirmation (AID 624330); assay type: functional
T6 sequence (Q9H0H5 whole entry): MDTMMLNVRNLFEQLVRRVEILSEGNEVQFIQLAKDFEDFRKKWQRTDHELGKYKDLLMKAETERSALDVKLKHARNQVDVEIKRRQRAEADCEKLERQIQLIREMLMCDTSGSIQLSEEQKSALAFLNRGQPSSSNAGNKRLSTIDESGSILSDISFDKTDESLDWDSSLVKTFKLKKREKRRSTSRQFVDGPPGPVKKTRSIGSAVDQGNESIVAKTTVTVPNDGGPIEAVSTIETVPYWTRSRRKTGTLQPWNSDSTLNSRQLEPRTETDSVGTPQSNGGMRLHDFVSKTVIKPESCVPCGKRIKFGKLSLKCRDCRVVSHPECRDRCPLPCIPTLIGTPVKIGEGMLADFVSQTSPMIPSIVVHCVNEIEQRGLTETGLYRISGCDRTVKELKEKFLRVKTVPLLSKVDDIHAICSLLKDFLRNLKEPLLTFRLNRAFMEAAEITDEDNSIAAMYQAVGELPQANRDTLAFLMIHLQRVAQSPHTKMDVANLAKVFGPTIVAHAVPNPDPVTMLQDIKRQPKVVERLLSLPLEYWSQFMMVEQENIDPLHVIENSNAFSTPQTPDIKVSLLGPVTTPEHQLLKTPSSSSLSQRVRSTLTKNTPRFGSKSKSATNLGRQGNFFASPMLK

[15] = target: DNA dC->dU-editing enzyme APOBEC-3A (Homo sapiens, UniProt P31941); assay: A3A deaminase inhibition for selectivity – biochemical, dose response (AID 504722); assay type: functional
DNA dC->dU-editing enzyme APOBEC-3A, sequence (P31941 whole entry): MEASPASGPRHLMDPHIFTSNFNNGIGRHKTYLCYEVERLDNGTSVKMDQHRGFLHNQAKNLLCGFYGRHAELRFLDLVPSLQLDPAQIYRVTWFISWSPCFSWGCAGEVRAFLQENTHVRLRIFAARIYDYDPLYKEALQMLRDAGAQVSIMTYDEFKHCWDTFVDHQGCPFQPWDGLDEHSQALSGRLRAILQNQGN

DNA dC->dU-editing enzyme APOBEC-3G, sequence (Q9HC16 whole entry): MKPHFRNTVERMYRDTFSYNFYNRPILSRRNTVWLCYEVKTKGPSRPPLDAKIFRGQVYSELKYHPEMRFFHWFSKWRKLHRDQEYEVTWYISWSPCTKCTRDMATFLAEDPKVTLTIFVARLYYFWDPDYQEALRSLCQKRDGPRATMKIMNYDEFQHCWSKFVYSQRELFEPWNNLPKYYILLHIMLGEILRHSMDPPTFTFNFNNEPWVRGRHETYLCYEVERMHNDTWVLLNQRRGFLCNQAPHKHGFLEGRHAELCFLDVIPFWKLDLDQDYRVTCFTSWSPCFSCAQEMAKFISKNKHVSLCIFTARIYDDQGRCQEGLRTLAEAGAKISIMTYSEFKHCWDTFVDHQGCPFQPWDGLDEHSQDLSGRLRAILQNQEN
Voltage-dependent T-type calcium channel subunit alpha-1H, sequence (O95180 whole entry): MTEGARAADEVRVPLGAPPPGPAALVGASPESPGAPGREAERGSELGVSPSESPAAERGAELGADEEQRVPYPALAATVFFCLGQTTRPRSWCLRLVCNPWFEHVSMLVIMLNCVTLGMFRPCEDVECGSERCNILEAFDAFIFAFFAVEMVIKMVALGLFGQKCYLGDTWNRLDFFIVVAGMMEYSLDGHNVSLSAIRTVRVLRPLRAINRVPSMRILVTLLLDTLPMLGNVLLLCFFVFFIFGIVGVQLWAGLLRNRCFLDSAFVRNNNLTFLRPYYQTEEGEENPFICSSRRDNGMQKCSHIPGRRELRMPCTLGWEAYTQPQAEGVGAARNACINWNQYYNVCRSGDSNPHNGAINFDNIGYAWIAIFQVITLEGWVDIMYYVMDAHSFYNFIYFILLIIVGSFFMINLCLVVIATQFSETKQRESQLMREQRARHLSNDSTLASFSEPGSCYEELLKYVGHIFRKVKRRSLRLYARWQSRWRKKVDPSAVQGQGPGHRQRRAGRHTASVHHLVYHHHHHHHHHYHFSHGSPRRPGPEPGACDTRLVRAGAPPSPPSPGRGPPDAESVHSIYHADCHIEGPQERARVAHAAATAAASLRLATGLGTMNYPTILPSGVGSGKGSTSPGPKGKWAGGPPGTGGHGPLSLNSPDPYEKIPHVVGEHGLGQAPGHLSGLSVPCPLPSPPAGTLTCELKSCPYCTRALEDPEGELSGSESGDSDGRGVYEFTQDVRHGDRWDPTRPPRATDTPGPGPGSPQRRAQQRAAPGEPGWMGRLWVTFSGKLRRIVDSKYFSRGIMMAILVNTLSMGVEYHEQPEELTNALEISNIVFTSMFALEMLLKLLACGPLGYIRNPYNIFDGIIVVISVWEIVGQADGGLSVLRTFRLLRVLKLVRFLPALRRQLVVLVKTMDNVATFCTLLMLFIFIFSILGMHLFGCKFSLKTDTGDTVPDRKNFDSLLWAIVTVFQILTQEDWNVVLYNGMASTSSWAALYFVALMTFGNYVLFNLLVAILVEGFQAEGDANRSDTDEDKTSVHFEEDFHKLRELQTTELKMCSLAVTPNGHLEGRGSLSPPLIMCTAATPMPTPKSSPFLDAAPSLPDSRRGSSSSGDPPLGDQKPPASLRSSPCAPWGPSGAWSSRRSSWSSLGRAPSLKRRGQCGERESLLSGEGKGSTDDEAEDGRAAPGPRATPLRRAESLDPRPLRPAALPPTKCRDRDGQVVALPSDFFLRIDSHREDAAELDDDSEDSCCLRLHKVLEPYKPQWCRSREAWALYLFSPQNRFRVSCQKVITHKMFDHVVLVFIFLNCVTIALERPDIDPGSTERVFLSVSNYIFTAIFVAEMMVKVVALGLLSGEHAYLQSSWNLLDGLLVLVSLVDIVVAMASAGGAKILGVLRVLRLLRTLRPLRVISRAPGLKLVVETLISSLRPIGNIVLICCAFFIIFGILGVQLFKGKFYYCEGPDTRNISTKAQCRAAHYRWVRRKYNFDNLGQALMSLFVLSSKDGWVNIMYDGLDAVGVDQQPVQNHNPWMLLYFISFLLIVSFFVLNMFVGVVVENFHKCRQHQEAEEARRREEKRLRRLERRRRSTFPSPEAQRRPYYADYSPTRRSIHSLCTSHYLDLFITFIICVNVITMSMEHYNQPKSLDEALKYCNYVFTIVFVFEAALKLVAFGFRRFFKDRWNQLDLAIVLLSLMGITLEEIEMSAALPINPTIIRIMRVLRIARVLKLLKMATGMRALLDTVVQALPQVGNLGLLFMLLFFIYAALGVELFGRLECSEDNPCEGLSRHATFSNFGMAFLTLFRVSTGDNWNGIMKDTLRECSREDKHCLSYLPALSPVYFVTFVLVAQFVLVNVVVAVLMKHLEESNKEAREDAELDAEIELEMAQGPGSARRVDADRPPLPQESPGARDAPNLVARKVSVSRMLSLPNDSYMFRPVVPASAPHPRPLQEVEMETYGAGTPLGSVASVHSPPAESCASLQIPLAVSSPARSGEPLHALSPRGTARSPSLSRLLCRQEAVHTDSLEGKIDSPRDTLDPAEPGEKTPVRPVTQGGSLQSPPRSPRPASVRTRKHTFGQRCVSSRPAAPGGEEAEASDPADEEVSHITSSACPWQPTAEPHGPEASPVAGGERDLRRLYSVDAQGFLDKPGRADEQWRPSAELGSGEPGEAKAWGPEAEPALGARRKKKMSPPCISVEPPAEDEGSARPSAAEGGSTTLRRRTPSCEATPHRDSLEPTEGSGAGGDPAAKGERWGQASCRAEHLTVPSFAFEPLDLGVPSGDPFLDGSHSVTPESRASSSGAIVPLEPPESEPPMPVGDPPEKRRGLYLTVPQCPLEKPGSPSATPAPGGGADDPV
Melanin-concentrating hormone receptor 1, sequence (Q99705 whole entry): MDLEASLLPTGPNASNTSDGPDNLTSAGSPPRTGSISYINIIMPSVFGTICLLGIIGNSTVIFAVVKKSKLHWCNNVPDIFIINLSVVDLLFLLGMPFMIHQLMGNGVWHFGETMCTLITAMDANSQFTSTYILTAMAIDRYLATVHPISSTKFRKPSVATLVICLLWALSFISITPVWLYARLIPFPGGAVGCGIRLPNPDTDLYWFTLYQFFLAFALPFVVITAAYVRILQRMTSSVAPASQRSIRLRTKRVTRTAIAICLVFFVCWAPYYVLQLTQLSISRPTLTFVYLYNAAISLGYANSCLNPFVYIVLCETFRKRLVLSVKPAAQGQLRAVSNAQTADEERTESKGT
Luciferin 4-monooxygenase, sequence (P08659 whole entry): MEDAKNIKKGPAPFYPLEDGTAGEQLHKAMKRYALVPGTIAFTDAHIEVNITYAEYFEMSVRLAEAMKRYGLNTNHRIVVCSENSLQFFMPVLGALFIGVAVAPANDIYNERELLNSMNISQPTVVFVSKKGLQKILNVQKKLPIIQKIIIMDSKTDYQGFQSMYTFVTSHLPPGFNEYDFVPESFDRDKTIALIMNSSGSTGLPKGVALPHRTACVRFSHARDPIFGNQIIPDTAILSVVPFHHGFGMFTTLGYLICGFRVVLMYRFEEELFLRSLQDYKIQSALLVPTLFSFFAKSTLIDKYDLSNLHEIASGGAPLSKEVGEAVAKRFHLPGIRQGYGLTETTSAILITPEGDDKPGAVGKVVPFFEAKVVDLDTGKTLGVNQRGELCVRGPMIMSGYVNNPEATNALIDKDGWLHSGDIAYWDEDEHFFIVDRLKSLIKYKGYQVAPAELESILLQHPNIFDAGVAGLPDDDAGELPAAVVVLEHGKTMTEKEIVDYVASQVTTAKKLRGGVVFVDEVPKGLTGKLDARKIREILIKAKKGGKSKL
Glyceraldehyde-3-phosphate dehydrogenase, sequence (P04406 whole entry): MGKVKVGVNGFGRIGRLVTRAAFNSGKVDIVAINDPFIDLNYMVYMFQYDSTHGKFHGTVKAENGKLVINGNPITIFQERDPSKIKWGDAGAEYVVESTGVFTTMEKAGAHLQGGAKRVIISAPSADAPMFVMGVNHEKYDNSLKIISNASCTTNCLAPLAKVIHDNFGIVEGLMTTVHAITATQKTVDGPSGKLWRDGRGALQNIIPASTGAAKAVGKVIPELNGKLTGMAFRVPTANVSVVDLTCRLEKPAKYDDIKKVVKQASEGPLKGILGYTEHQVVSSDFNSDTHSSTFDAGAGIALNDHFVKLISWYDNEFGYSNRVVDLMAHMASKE

O=C1c2ccccc2C(=O)N1CCC(c1ccccc1)c1ccco1 (stereo unspecified)
EC50 [1]: > 50 µM (active)

O=C(c1ccco1)N1CCN(S(=O)(=O)c2ccc(S(=O)(=O)NC3CCCCC3)cc2)CC1
IC50 [2]: 23.8 µM (not active)

C/C(Cl)=C\Cn1c(O)c(/N=N/C(=N)S)c2ccccc21
EC50 [3]: > 30 µM (not active)
EC50 [4]: 1.2 µM (active)
IC50 (Aminopeptidase N): 63.5 µM (active)
IC50 [5]: > 20 µM (inactive)

Fc1ccc(-c2nnc(-c3ccc(Cl)cc3Cl)o2)cc1
CC50 [6]: 37 µM (active)
EC50 (HT-1080): > 50 µM (not active)
EC50 (Troponin, cardiac muscle): > 71.5 µM (inactive)
EC50 [7]: 2.56 µM (active)
IC50 (Protein skinhead-1): > 100 µM (inactive)

Cc1ccccc1NC(NC(=O)c1cccs1)C(Cl)(Cl)Cl (stereo unspecified)
EC50 [8]: 5.15 µM (active)

O=C(O)C1Nc2c(cccc2N2CCOCC2)C2C=CCC12 (stereo unspecified)
IC50 [9]: 44 µM (active)
IC50 [10]: 60.1 µM (active)
IC50 [11]: > 100 µM (not active)
IC50 [12]: 3.87 µM (active)

COc1ccc(/C=N/n2c(S)nnc2-c2[nH]nc3c2CCC3)cc1OC
IC50 [13]: 2.49 µM (active)
IC50 [14]: 79.9 µM (active)
IC50 [15]: > 100 µM (inactive)

C=CCn1c(S)nnc1-c1cccc(S(=O)(=O)N(CC)CC)c1
IC50 [13]: 5.67 µM (active)
IC50 [15]: > 100 µM (inactive)
